Measured values reported in ChEMBL document CHEMBL5346892, “Design and synthesis of benzochromene derivatives as AcrB inhibitors for the reversal of bacterial multidrug resistance” (Eur J Med Chem, 2023).
Calls of active or inactive are those of the source. The rule behind the calls is not given here.

Legend:
[1] = Hemolytic activity in mouse RBC assessed as hemolysis at 4 to 256 microg/ml incubated for 1 hr by microplate reader analysis; format: toxicity, cell-based, Erythrocyte; conditions: mouse red blood cells (erythrocytes), at 4 to 256 µg/mL, dose 4-256 µg/ml, read-out: Activity
Escherichia coli [2] = assay: Synergistic antibacterial activity against wild type Escherichia coli BW25113 assessed as levofloxacin MIC at 8 microg/ml incubated for 18 hrs in presence of colistin by broth dilution assay; format: functional; conditions: dose 8 µg/ml
Escherichia coli [3] = assay: Synergistic antibacterial activity against wild type Escherichia coli BW25113 assessed as erythromycin MIC at 32 microg/ml incubated for 18 hrs in presence of colistin by broth dilution assay; format: functional; conditions: dose 32 µg/ml
Escherichia coli [4] = assay: Synergistic antibacterial activity against wild type Escherichia coli BW25113 assessed as levofloxacin MIC at 128 microg/ml incubated for 18 hrs by broth dilution assay; format: functional; conditions: dose 128 µg/ml
Escherichia coli [5] = assay: Synergistic antibacterial activity against wild type Escherichia coli BW25113 assessed as levofloxacin MIC at 8 microg/ml incubated for 18 hrs by broth dilution assay; format: functional; conditions: dose 8 µg/ml
Escherichia coli [6] = assay: Synergistic antibacterial activity against wild type Escherichia coli BW25113 assessed as erythromycin MIC at 8 microg/ml incubated for 18 hrs by broth dilution assay; format: functional; conditions: dose 8 µg/ml
Escherichia coli [7] = assay: Synergistic antibacterial activity against wild type Escherichia coli BW25113 assessed as erythromycin MIC at 32 microg/ml incubated for 18 hrs by broth dilution assay; format: functional; conditions: dose 32 µg/ml
Escherichia coli [8] = assay: Synergistic antibacterial activity against wild type Escherichia coli BW25113 assessed as minocycline MIC at 128 microg/ml incubated for 18 hrs by broth dilution assay; format: functional; conditions: dose 128 µg/ml
Escherichia coli [9] = assay: Synergistic antibacterial activity against wild type Escherichia coli BW25113 assessed as erythromycin MIC at 128 microg/ml incubated for 18 hrs by broth dilution assay; format: functional; conditions: dose 128 µg/ml
Escherichia coli [10] = assay: Synergistic antibacterial activity against wild type Escherichia coli BW25113 assessed as erythromycin MIC at 8 microg/ml incubated for 18 hrs in presence of colistin by broth dilution assay; format: functional; conditions: dose 8 µg/ml
Escherichia coli [11] = assay: Synergistic antibacterial activity against wild type Escherichia coli BW25113 assessed as levofloxacin MIC at 32 microg/ml incubated for 18 hrs in presence of colistin by broth dilution assay; format: functional; conditions: dose 32 µg/ml
Escherichia coli [12] = assay: Synergistic antibacterial activity against wild type Escherichia coli BW25113 assessed as minocycline MIC at 32 microg/ml incubated for 18 hrs in presence of colistin by broth dilution assay; format: functional; conditions: dose 32 µg/ml
Escherichia coli [13] = assay: Synergistic antibacterial activity against wild type Escherichia coli BW25113 assessed as erythromycin MIC at 64 microg/ml incubated for 18 hrs in presence of colistin by broth dilution assay; format: functional; conditions: dose 64 µg/ml
[14] = Toxicity in Caenorhabditis elegans assessed as survival rate at 128 microg/ml measured after 72 hrs by light microscopic analysis; conditions: at 128 µg/mL
Escherichia coli [15] = assay: Synergistic antibacterial activity against wild type Escherichia coli BW25113 assessed as levofloxacin MIC at 64 microg/ml incubated for 18 hrs by broth dilution assay; format: functional; conditions: dose 64 µg/ml
Escherichia coli [16] = assay: Synergistic antibacterial activity against wild type Escherichia coli BW25113 assessed as levofloxacin MIC at 16 microg/ml incubated for 18 hrs in presence of colistin by broth dilution assay; format: functional; conditions: dose 16 µg/ml
[17] = molecular target: T1, Multidrug efflux pump subunit AcrB (Escherichia coli (strain K12)) (UniProt P31224); assay: Inhibition of Escherichia coli BW25113 AcrB assessed as inhibition of nile red efflux at 50 uM incubated for 15 mins
T1 sequence (whole entry): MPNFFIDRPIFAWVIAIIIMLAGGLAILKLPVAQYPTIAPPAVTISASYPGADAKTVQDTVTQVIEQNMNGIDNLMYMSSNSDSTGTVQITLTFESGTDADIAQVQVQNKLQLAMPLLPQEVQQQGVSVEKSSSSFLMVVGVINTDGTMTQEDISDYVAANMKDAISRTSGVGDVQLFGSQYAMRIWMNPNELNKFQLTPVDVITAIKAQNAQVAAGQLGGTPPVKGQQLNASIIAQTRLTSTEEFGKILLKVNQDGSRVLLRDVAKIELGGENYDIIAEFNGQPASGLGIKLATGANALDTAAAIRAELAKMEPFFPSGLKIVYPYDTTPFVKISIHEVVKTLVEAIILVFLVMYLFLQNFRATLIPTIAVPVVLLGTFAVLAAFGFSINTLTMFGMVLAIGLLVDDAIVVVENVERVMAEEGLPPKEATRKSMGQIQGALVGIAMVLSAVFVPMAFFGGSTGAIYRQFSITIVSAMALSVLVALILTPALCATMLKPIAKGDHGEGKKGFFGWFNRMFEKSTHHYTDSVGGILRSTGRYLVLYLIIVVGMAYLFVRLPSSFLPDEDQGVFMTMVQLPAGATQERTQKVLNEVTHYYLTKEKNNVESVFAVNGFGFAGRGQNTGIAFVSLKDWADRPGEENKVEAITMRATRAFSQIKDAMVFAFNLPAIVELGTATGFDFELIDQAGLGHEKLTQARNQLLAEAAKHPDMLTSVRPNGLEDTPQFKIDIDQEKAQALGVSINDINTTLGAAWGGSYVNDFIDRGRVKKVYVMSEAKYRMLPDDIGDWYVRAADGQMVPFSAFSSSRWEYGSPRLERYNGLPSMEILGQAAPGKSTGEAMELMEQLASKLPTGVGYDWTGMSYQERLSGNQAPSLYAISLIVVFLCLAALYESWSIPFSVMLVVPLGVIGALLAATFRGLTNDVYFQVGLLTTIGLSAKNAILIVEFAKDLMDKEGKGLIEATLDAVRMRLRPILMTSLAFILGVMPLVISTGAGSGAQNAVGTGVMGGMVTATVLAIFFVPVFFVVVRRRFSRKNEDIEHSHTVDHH

Escherichia coli [18] = assay: Synergistic antibacterial activity against wild type Escherichia coli BW25113 assessed as minocycline MIC at 64 microg/ml incubated for 18 hrs in presence of colistin by broth dilution assay; format: functional; conditions: dose 64 µg/ml
Escherichia coli [19] = assay: Synergistic antibacterial activity against wild type Escherichia coli BW25113 assessed as erythromycin MIC at 16 microg/ml incubated for 18 hrs by broth dilution assay; format: functional; conditions: dose 16 µg/ml
Escherichia coli [20] = assay: Synergistic antibacterial activity against wild type Escherichia coli BW25113 assessed as erythromycin MIC at 16 microg/ml incubated for 18 hrs in presence of colistin by broth dilution assay; format: functional; conditions: dose 16 µg/ml
Escherichia coli [21] = assay: Synergistic antibacterial activity against wild type Escherichia coli BW25113 assessed as minocycline MIC at 8 microg/ml incubated for 18 hrs in presence of colistin by broth dilution assay; format: functional; conditions: dose 8 µg/ml
Escherichia coli [22] = assay: Synergistic antibacterial activity against wild type Escherichia coli BW25113 assessed as minocycline MIC at 32 microg/ml incubated for 18 hrs by broth dilution assay; format: functional; conditions: dose 32 µg/ml
Escherichia coli [23] = assay: Synergistic antibacterial activity against wild type Escherichia coli BW25113 assessed as levofloxacin MIC at 16 microg/ml incubated for 18 hrs by broth dilution assay; format: functional; conditions: dose 16 µg/ml
Escherichia coli [24] = assay: Synergistic antibacterial activity against wild type Escherichia coli BW25113 assessed as erythromycin MIC at 64 microg/ml incubated for 18 hrs by broth dilution assay; format: functional; conditions: dose 64 µg/ml
Cell membrane = assay: Induction of inner membrane permeabilization in Escherichia coli BW25113 assessed as increase in fluorescence intensity at 64 microg/ml incubated for 10 mins by DiOC2 dye based fluorimeter analysis; format: subcellular; conditions: dose 64.0 µg/ml

Row | SMILES | hemolysis at 1 h [1] [%] | MIC (Escherichia coli [2]) [µg/mL] | MIC (Escherichia coli [3]) [µg/mL] | MIC (Escherichia coli [4]) [µg/mL] | MIC (Escherichia coli [5]) [µg/mL] | MIC (Escherichia coli [6]) [µg/mL] | MIC (Escherichia coli [7]) [µg/mL] | MIC (Escherichia coli [8]) [µg/mL] | MIC (Escherichia coli [9]) [µg/mL] | MIC (Escherichia coli [10]) [µg/mL] | MIC (Escherichia coli [11]) [µg/mL] | MIC (Escherichia coli [12]) [µg/mL] | MIC (Escherichia coli [13]) [µg/mL] | survival at 72 h, 128 microg/ml [14] [%] | MIC (Escherichia coli [15]) [µg/mL] | MIC (Escherichia coli [19]) [µg/mL] | MIC (Escherichia coli [21]) [µg/mL] | MIC (Escherichia coli [22]) [µg/mL] | MIC (Escherichia coli [23]) [µg/mL] | MIC (Escherichia coli [24]) [µg/mL] | further results
1 | CC1(C)CCc2c(C(=O)N3CCOCC3)cc3c(OCCCOc4cccc(C(=O)O)c4)cccc3c2O1 | < 5 | 0.016 | 4 | 0.016 | 0.016 | 32 | 32 | 0.5 | 16 | 8 | 0.016 | 0.5 | 4 | 90 | 0.016 | 32 | 0.5 | 1 | 0.016 | 16 | MIC (Escherichia coli [16]): 0.016 µg/mL; inhibition [17]: Active; MIC (Escherichia coli [18]): 0.5 µg/mL; MIC (Escherichia coli [20]): 4 µg/mL
2 | CC1(C)CCc2c(C(=O)N3CCOCC3)cc3c(OCCN4CCN(c5ccccc5)CC4)cccc3c2O1 | < 5 | 0.032 | – | 0.016 | 0.032 | 32 | 32 | 1 | 16 | 4 | 0.032 | – | – | 90 | 0.016 | 32 | 0.5 | 2 | 0.016 | 32 | Activity (Cell membrane): inactive; inhibition [17]: Active
3 | CC1(C)CCc2c(C(=O)N3CCOCC3)cc3c(OCCSc4ccc([N+](=O)[O-])cc4)cccc3c2O1 | < 5 | 0.032 | 4 | 0.016 | 0.016 | 16 | 16 | 2 | 16 | 8 | 0.032 | 1 | 4 | 90 | 0.016 | 16 | 1 | 2 | 0.032 | 16 | Activity (Cell membrane): inactive; MIC (Escherichia coli [16]): 0.032 µg/mL; MIC (Escherichia coli [18]): 0.5 µg/mL; MIC (Escherichia coli [20]): 8 µg/mL
4 | COc1ccc(OCCCOc2cccc3c4c(c(C(=O)N5CCOCC5)cc23)CCC(C)(C)O4)cc1 | < 5 | 0.016 | 16 | 0.032 | 0.032 | 32 | 32 | 1 | 8 | 16 | 0.032 | 0.5 | 16 | 90 | 0.032 | 32 | 0.5 | 2 | 0.032 | 16 | Activity (Cell membrane): inactive; MIC (Escherichia coli [16]): 0.016 µg/mL; inhibition [17]: Active; MIC (Escherichia coli [18]): 0.25 µg/mL; MIC (Escherichia coli [20]): 16 µg/mL
